Test results reported in patent publication US11859242B2, “Template-directed nucleic acid targeting compounds” (Carnegie Mellon University, priority 2017, dated 2024).
“Also recorded” adds a separate entry of the source.

Tests used:
[1] = test system: RNA targets containing hexameric r(CUGCUG)-repeats (T1-T8); assay: UV melting experiments of MPγPNA probes with RNA targets; format: binding; conditions: for differences in the Tms of RNAs with mismatched probes: single (P5) and double (P6) base mismatch probes; for trend of Tms with number of binding-sites in the targets: 10 mM NaPi, 150 mM KCl, 2 mM MgCl2, pH 7.4, 8 μM strand concentration
Experimental: FIG. 7. UV-melting profiles of PI through P4 with T6. The concentration of T6 was 1 μM and that of each probe was 6 μM, prepared in a physiologically relevant buffer.
FIG. 8. UV-melting profiles of P4-RNA heteroduplexes in a physiologically relevant buffer at 8 μM strand concentration. The samples were prepared by mixing 8 μM of P4 with the respective RNA targets at the following concentrations: T1=8.0 μM, T2=4.0 μM, T4=2.0 μM, T6=1.3 μM, T8=1.0 μM in a physiological buffer and annealed at 90° C. for 5 min, followed by a gradual cooling to room temperature.
FIG. 9. UV-melting transitions of RNAs and the corresponding probe-RNA heteroduplexes containing the perfectly-matched and mismatched sequences as a function of the number of r(CUGCUG)n-binding-sites in the targets. Inset: UV-melting profiles Of RNA with P5 and P6 containing single and double base-mismatches, respectively.
UV Melting Experiments: All UV-melting samples were prepared by mixing MPγPNA with RNA targets at the indicated concentrations in a physiologically simulated buffer (10 mM NaPi (sodium phosphate buffer), 150 mM KCl, 2 mM MgCl2; pH 7-4), and annealed by incubation at 90° C. for 5 min followed by a gradual cooling to room temperature. UV melting curves were collected using Agilent Cary UV-Vis 300 spectrometer equipped with a thermoelectrically controlled multi-cell holder. UV-melting spectra were collected by monitoring UV-absorption at 260 nm from 25° C. to 95° C. in the heating runs, and from 95° C. to 25° C. in the cooling runs, both at the rate of 0.2° C. per min. […] The recorded spectra were smoothed using a 20-point adjacent averaging algorithm. The first derivatives of the melting curves were taken to determine the melting temperatures of the duplex.
All the experiments were conducted at a physiologically relevant ionic strength (10 mM NaPi, 150 mM KCl, and 2 mM MgCl2 at pH 7.4). RNA concentrations were prepared such that the number of r(CUGCUG)-repeats in each sample was the same. […] Based on this finding, we selected P4 and carried out UV-melting study with the various RNA targets. […] Pyrene-pyrene interaction is evident from the inverse absorption profiles of P4-T6 and P4-T8 in the 40-70° C. temperature range. Upon heating, the solvophobic effect becomes more pronounced due to the inverse intensity distribution of vibronic transition of pyrene excimer relative to monomer, Ae^o→o/Am^o→o˜0.6, prior to their dissociation upon further heating. […] The Tms of the P4-RNA series follow a positive linear correlation, Y=66+2X, with X being the number of binding-sites in the targets (FIG. 9). […] Such a phenomenon was also observed with PNA-ligand conjugates.

[2] = test system: normal-length T6 and pathogenic T48 [r(CUG)96] RNA; assay: Competitive binding assay (agarose gel, SYBR-Gold); conditions: equimolar binding-sites of T6 and T48, 37° C. for 16 hrs
Experimental: FIG. 12. Selective binding of r(CUGCUG)n-RNA transcripts by P4. The samples were prepared by mixing pre-annealed RNAs with probes at 37° C. for 4 hrs. The ratios of P4 to the total RNA binding-sites were 0 (lane 3), ¼ (lane 4), ½ (lane 5), 1/1 (lane 6); and for the mismatched P5 at 1/1 (lane 7). Competitive Binding Assay: T6 was purchased from IDT. T48, the same as r(CUG)96, was prepared as previous described, except that the DNA template was (CTG)96. T6 and T48 were separately annealed by heating up to 90° C. for 5 min and gradually cooled to room temperature. Probes and RNA targets were mixed at the indicated concentrations and incubated in a physiologically simulated buffer at 37° C. for 4 hr in silicon-coated Eppendorf tubes. The samples were then loaded onto 2% agarose-gel containing IX SYBR-Gold with Tris-borate buffer and electrophoretically separated at 100 V for 15 min. The bands were visualized by UV-Transilluminator. To assess the recognition selectivity of P4 probe, we carried out a competitive binding assay. Equimolar binding-sites of the normal-length T6 and the pathogenic T48 [r(CUG)96, prepared according to our published protocol, were incubated with different concentrations of P4 at 37° C. for 16 hrs. The resulting mixtures were analyzed by agarose-gel and stained with SYBR-Gold for visualization.

[3] = test system: rCUG^exp-MBNL1 complex (T48 with GST-MBNL1-F1); assay: Analysis of T48-MBNL1 disruption by probe (gel-shift assay); format: biochemical; conditions: T48 25 nM, GST-MBNL1-F1 400 nM; increasing probe concentrations
Experimental: FIG. 13. Displacement of MBNL1 from T48 by P4. P-T48 was allowed to form complexes with GST-MBNL1-FI prior to the addition of P4. The samples were prepared in a physiologically relevant buffer at the final T48 and GST-MBNL1-FI concentration of 25 nM and 400 nM, respectively.
Analysis of T48-MBNL1 Disruption by Probe: T48 and GST-MBNL1-F1 were prepared as previously described. Radioisotopically labeled T48 was incubated with GST-MBNL1-F1 in buffer containing 50 mM Tris, 50 mM NaCl, 50 mM KCl and 1 mM MgCl2 (pH 8.0) at the indicated concentrations at 25° C. for 30 minutes. The indicated concentration of P4 was added to T48-MBNL1 complex. The samples were immediately loaded to 1.5% agarose gels with 1× Tris-borate buffer and electrophoretically separated at 100 V for 2 hrs. The bands were visualized by phosphorimaging and quantified with ImageQuant (Molecular Dynamics).
Next, we determined whether P4 can disrupt the rCUG^exp-MBNL1 complex by performing a gel-shift assay. The RNA-protein complex was prepared by incubating 5′-^32P-labelled T48 with MBNL1 at a physiologically relevant condition. Upon confirmation of their binding, P4 was added and the resulting mixtures were incubated at 37° C. for 4 hrs prior to their analysis by nondenaturing PAGE and autoradiography. Formation of the T48-MBNL1 complexes is evident by the smeared patterns observed in lanes 2 through 4 of FIG. 13. […]

[4] = test system: RNA targets containing r(CUGCUG)-repeats (T1-T8); assay: Steady-state fluorescent measurements of P4-RNA duplexes (pyrene excimer emission); conditions: P4 1 μM, equimolar binding sites T1-T8; 37° C., 1 hr
Experimental: (§1) FIG. 10. Fluorescent spectra of P4-RNA duplexes at equimolar concentrations (P4=1 μM; T1=1 μM, T2=½, T4 ¼, T6=⅙, T8 ⅛) following the incubation at 37° C. for 1 hr and excitation at 345 nm. Inset: Fluorescent signals at 480 nm as a function of time following the addition of P4 (1 μM) to T8 (⅛ μM), and P4 (1 μM) to [T1 (1 μM)+T8 (⅛ μM)] at 37° C.
Steady-State Fluorescent Measurements: All steady-state fluorescence samples were prepared by mixing P4-RNA duplexes at the indicated concentrations in a simulated physiological buffer and annealed by incubation at 90° C. for 5 min, followed by a gradual cooling to 37° C. The samples were incubated at 37° C. for 1 hr before the measurements. Steady-state fluorescence data were collected at 37° C. by Cary Eclipse Fluorescence Spectrometer. (εex=350 nm and εem=480 nm) with slit size.
(§2) To further corroborate these findings, we carried out fluorescent measurements under identical conditions. The samples were excited at 340 nm, and the fluorescent signals were recorded from 345 to 650 nm. Characteristic of the pyrene-pyrene excimer formation is the emission at 480 nm (FIG. 10). […] The samples were markedly different under UV-illumination, such that they could be distinguished with the naked eyes (FIG. 11).

[5] = test system: T8 RNA (r(CUGCUG)-repeats), with or without competing T1; assay: Real-time fluorescent binding kinetics
Experimental: as §1
Real-Time Fluorescent Binding Kinetics: For real-time fluorescent kinetic experiment the samples were prepared as followed: (1) P4 alone, (2) P4, T1 and T8 annealed prior to the measurement, (3) addition of P4 to T8 at 37° C., and (4) addition of P4 to T8 in the presence of T1 at equimolar binding sites. Realtime fluorescence data were collected at 37° C. by Cary Eclipse Fluorescence Spectrometer. (εex=350 nm and εem=480 nm) with slit size.
as §2

Substance | differences in the Tms of RNAs with mismatched probes [1] | recognition selectivity / binding to T48 versus T6 [2] | trend of Tms with number of binding-sites in the targets [1] | other results
H-^LArg-^LLys(Pyr)-CATCAG-^LLys(Pyr)-^LArg-NH2 [P5] | no discernible differences | No evidence of binding | – | –
H-^L-Arg-CAGCAG-^LArg-NH2 [P1] | – | – | plateaued at X˜3 | –
H-^LArg-^LLys(Pyr)-CTGCTG-^LLys(Pyr)-^LArg-NH2 [P6] | no discernible differences | – | – | –
H-^LArg-^LLys(Pyr)-CAGCAG-^LLys(Pyr)-^LArg-NH2 [P4] | – | able to discriminate the pathogenic T48 from the wt-T12 | monotonically increased with the number of binding-sites | disruption of rCUG^exp-MBNL1 complex / displacement of MBNL1 from T48 [3]: able to disrupt the rCUG^exp-MBNL1 complex; fluorescent intensities at 480 nm (pyrene-pyrene excimer) with number of binding-sites in RNAs [4]: gradual increase in the fluorescent intensities at 480 nm; binding cooperativity (UV-melting profiles) ([1]; with T6, T6 1 μM, probe 6 μM, physiologically relevant buffer, comparison of linker lengths P2 through P4): highest degree of binding cooperativity; also recorded: cooperative binding was clearly observed; hybridization lag-time with competing T1 strand ([5]; P4 1 μM added to T1 1 μM + T8 ⅛ μM (equimolar binding-sites) at 37° C.): 2 min; time to nearly complete hybridization to T8 ([5]; P4 1 μM added to T8 ⅛ μM at 37° C., fluorescence at 480 nm): ≤ 10 min; interaction with single-binding-site RNA ([5]; physiologically simulated condition, T1 competitor): weak and transient
